In patent US7420083B2, “Substituted aryloximes” (Wyeth, priority 2003, dated 2008) one finds melting point and IC50 data, which are given here for 13 molecules.

The target in one series is human PAI-1 (Homo sapiens, UniProt P05121). The series can be described thus: Assay for determining the IC50 of inhibition of PAI-1 (active PAI-1 bound to tPA-coated plate, 33B8 antibody detection). The format is biochemical. To be noted: human PAI-1 50 ng/ml, pH 7.5. The protocol: Assay for determining the IC50 of inhibition of PAI-1. This assay is based upon the non-SDS dissociable interaction between tPA and active PAI-1. Assay plates are initially coated with human tPA (10 μg/ml). Test compounds are dissolved in DMSO at 10 mM, then diluted with physiologic buffer (pH 7.5) to a final concentration of 1-50 μM. The test compounds are incubated with human PAI-1 (50 ng/ml) for 15 minutes at room temperature. The tPA-coated plate is washed with a solution of 0.05% Tween 20 and 0.1% BSA, then the plate is blocked with a solution of 3% BSA. An aliquot of the test compound/PAI-1 solution is then added to the tPA-coated plate, incubated at room temperature for 1 hour, and washed. Active PAI-1 bound to the plate is assessed by adding an aliquot of a 1:1000 dilution of the 33B8 monoclonal antibody against human PAI-1, and incubating the plate at room temperature for 1 hour (Molecular Innovations, Royal Oak, Mich.). The plate is again washed, and a solution of goat anti-mouse IgG-alkaline phosphatase conjugate is added at a 1:50,000 dilution in goat serum. The plate is incubated 30 minutes at room temperature, washed, and a solution of alkaline phosphatase substrate is added. The plate is incubated 45 minutes at room temperature, and color development is determined at OD405 nm. The quantitation of active PAI-1 bound to tPA at varying concentrations of the test compound is used to determine the IC50. Results are analyzed using a logarithmic best-fit equation. The assay sensitivity is 5 ng/ml of human PAI-1 as determined from a standard curve ranging from 0-100 ng/ml.
Chain of human PAI-1 (P05121 24-402): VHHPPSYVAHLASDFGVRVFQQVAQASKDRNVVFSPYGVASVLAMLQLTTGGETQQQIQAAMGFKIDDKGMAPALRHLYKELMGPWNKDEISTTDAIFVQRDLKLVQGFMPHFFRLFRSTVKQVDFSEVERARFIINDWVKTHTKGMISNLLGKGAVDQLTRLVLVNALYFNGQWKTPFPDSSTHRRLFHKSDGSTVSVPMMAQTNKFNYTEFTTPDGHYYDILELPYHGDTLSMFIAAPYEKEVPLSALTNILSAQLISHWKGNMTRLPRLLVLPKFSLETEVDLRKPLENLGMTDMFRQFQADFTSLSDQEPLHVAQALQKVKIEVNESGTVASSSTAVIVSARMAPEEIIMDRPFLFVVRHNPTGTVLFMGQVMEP

On to `CC(C)(C)c1ccc(C=NOCCCOc2ccc(CC(=O)O)cc2)cc1` [Compound 4, {4-[3-(4-tert-Butyl-benzylideneaminooxy)-propoxy]-phenyl}-acetic Acid], for which the melting point (commonly the temperature of the solid-liquid transition) was 56.2 to 59.2 °C. Half-maximal inhibition on human PAI-1 (IC50) was put at 34.2 µM.

Take `CC(C)(C)c1ccc(/C=N/OCCOc2ccc(C(=O)O)c(OC(=O)c3ccc(C(C)(C)C)cc3)c2)cc1` [Compound 10, 2-{[4-(tert-Butyl)benzoyl]oxy}-4-{2-[({(E)-[4-(tert-butyl)phenyl]methylidene}amino)oxy]ethoxy}benzoic Acid]: the melting point is 148.1 to 150.1 °C. Also, the IC50 (usually the concentration at which inhibition is half-maximal) at human PAI-1 came out at 17.8 µM.

Regarding `C/C(=N\OCCOc1ccc(C(=O)O)c(OC(=O)c2ccc(-c3ccccc3)cc2)c1)c1ccccc1` [Compound 15, 2-[([1,1′-Biphenyl]-4-ylcarbonyl)oxy]-4-[2-({[(E)-1-phenylethylidene]amino}oxy)ethoxy]benzoic Acid], the melting point is 157.5 to 159.1 °C. Further, the midpoint of inhibition against human PAI-1, the IC50, lay at 18.9 µM.

The molecule `O=C(O)c1ccc(OCCCO/N=C/c2cc(C(F)(F)F)cc(C(F)(F)F)c2)cc1O` [Compound 19, 4-{3-[({(E)-[3,5-Bis(trifluoromethyl)phenyl]methylidene}amino)oxy]propoxy}-2-hydroxybenzoic Acid] displayed a melting point of 181.9 to 183.4 °C. Further, at human PAI-1, the IC50 is 4.14 µM. For the molecule `CC/C(=N\OCCCOc1ccc(C(=O)O)c(NC(=O)c2ccc(C(F)(F)F)cc2)c1)c1ccc(C(C)(C)C)cc1` [Compound 21, 4-[3-({[(1E)-1-(4-tert-butylphenyl)propylidene]amino}oxy)propoxy]-2-{[4-(trifluoromethyl)benzoyl]amino}benzoic Acid], the melting point was in the range of 149.4 to 151 °C. The same molecule registered a concentration for half-maximal inhibition (IC50) against human PAI-1 of 16.3 µM. `O=C(Nc1cc(OCCCO/N=C/c2ccc(C(F)(F)F)cc2)ccc1C(=O)O)c1ccc(C(F)(F)F)cc1` [Compound 22, 2-{[4-(Trifluoromethyl)benzoyl]amino}-4-{3-[({(1E)-[4-(trifluoromethyl)phenyl]methylidene}amino)oxy]propoxy}benzoic Acid] showed a melting point of 208.6 to 209.6 °C. On human PAI-1, this molecule came in with an IC50 of 4.14 µM.

As for `CC(C)(C)c1ccc(/C=N/OCCCOc2ccc(C(=O)O)c(NC(=O)c3ccccc3C(F)(F)F)c2)cc1` [Compound 24, 4-[3-({[(1E)-(4-tert-Butylphenyl)methylidene]amino}oxy)propoxy]-2-{[2-(trifluoromethyl)benzoyl]amino}benzoic acid], the melting point was in the range of 121.1 to 122 °C. Besides, at human PAI-1, the IC50 was determined as 17.5 µM. Molecule `O=C(O)c1ccc(OCCCO/N=C/c2ccc(C(F)(F)F)cc2)cc1NC(=O)c1ccccc1C(F)(F)F` [Compound 25, 2-{[2-(Trifluoromethyl)benzoyl]amino}-4-{3-[({(1E)-[4-(trifluoromethyl)phenyl]methylidene}amino)oxy]propoxy}benzoic acid] had a melting point of 147.2 to 147.9 °C. The same molecule displayed an IC50 at human PAI-1 of 26.8 µM. `CC(C)(C)c1ccc(/C=N/OCCCOc2ccc(C(=O)O)c(NC(=O)c3cc(C(F)(F)F)cc(C(F)(F)F)c3)c2)cc1` [Compound 27, 2-{[3,5-Bis(trifluoromethyl)benzoyl]amino}-4-[3-({[(1E)-(4-tert-butylphenyl)methylidene]amino}oxy)propoxy]benzoic Acid]: the melting point lay within 157.5 to 158.5 °C. Moreover, the midpoint of inhibition against human PAI-1, the IC50, lay at 15.7 µM.

In turn, `O=C(Nc1cc(OCCCO/N=C/c2ccc(C(F)(F)F)cc2)ccc1C(=O)O)c1ccc(OC(F)(F)F)cc1` [Compound 30, 2-{[4-(Trifluoromethoxy)benzoyl]amino}-4-{3-[({(1E)-[4-(trifluoromethyl)phenyl]methylidene}amino)oxy]propoxy}benzoic Acid] returned an IC50 against human PAI-1 of 15.9 µM. This lies in the double-digit micromolar range. Turning to `O=C(Nc1cc(OCCCO/N=C/c2ccc(-c3ccccc3)cc2)ccc1C(=O)O)c1cc(C(F)(F)F)cc(C(F)(F)F)c1` [Compound 31, 4-[3-({[(1E)-1,1′-Biphenyl-4-ylmethylidene]amino}oxy)propoxy]-2-{[3,5-bis(trifluoromethyl)benzoyl]amino}benzoic Acid], the melting point is 205 to 206 °C (dec.). Besides, the IC50 against human PAI-1 was found to be 19.6 µM. For the molecule `O=C(Nc1cc(OCCCO/N=C/c2ccc(C(F)(F)F)cc2)ccc1C(=O)O)c1cc(C(F)(F)F)cc(C(F)(F)F)c1` [Compound 32, 2-{[3,5-Bis(trifluoromethyl)benzoyl]amino}-4-{3-[({(1E)-[4-(trifluoromethyl)phenyl]methylidene}amino)oxy]propoxy}benzoic Acid], the melting point is 218 to 219 °C (dec.). Besides, 15.8 µM corresponded to half-maximal inhibition against human PAI-1 (IC50). On to `CC(C)(C)c1ccc(/C=N/OCc2ccc(C(=O)O)c(Br)c2)cc1` [Compound 33, 2-Bromo-4-[({[(1E)-(4-tert-butylphenyl)methylidene]amino}oxy)methyl]benzoic Acid], for which the melting point was in the range of 162 to 163 °C. This molecule also came in with an IC50 against human PAI-1 of 13.8 µM.
